Assays:
[1] = Terminal half life in wild type FVB mouse plasma at 100 mg/kg, po; type: ADME, organism-based; parameters: dose 100 mg/kg, route oral; conditions: read-out: beta t1/2 (converted)
[2] = Terminal half life in wild type FVB mouse brain at 100 mg/kg, po; type: ADME, organism-based; parameters: dose 100 mg/kg, route oral; conditions: read-out: beta t1/2 (converted)
[3] = Terminal half life in wild type FVB mouse brain at 100 mg/kg, ip; type: ADME, organism-based; parameters: dose 100 mg/kg, route intraperitoneal; conditions: read-out: beta t1/2 (converted)
[4] = Terminal half life in wild type FVB mouse plasma at 100 mg/kg, ip; type: ADME, organism-based; parameters: dose 100 mg/kg, route intraperitoneal; conditions: read-out: beta t1/2 (converted)
[5] = Terminal half life in wild type FVB mouse plasma at 2.5 mg/kg, iv; type: ADME, organism-based; parameters: dose 2.5 mg/kg, route intravenous; conditions: read-out: beta t1/2 (converted)
[6] = Terminal half life in wild type FVB mouse brain at 2.5 mg/kg, iv; type: ADME, organism-based; parameters: dose 2.5 mg/kg, route intravenous; conditions: read-out: beta t1/2 (converted)
[7] = Cmax in wild type FVB mouse plasma at 100 mg/kg, ip; type: ADME, organism-based; parameters: dose 100 mg/kg, route intraperitoneal
[8] = Cmax in wild type FVB mouse brain at 100 mg/kg, ip; type: ADME, organism-based; parameters: dose 100 mg/kg, route intraperitoneal
[9] = Cmax in wild type FVB mouse plasma at 2.5 mg/kg, iv; type: ADME, organism-based; parameters: dose 2.5 mg/kg, route intravenous
[10] = Cmax in wild type FVB mouse brain at 2.5 mg/kg, iv; type: ADME, organism-based; parameters: dose 2.5 mg/kg, route intravenous
[11] = Cmax in wild type FVB mouse plasma at 100 mg/kg, po; type: ADME, organism-based; parameters: dose 100 mg/kg, route oral
[12] = Cmax in wild type FVB mouse brain at 100 mg/kg, po; type: ADME, organism-based; parameters: dose 100 mg/kg, route oral
[13] = Tmax in wild type FVB mouse plasma at 2.5 mg/kg, iv; type: ADME, organism-based; parameters: dose 2.5 mg/kg, route intravenous
[14] = Tmax in wild type FVB mouse brain at 2.5 mg/kg, iv; type: ADME, organism-based; parameters: dose 2.5 mg/kg, route intravenous
[15] = Tmax in wild type FVB mouse plasma at 100 mg/kg, ip; type: ADME, organism-based; parameters: dose 100 mg/kg, route intraperitoneal
[16] = Tmax in wild type FVB mouse brain at 100 mg/kg, ip; type: ADME, organism-based; parameters: dose 100 mg/kg, route intraperitoneal
[17] = Tmax in wild type FVB mouse plasma at 100 mg/kg, po; type: ADME, organism-based; parameters: dose 100 mg/kg, route oral
[18] = Tmax in wild type FVB mouse brain at 100 mg/kg, po; type: ADME, organism-based; parameters: dose 100 mg/kg, route oral
[19] = AUC (0 to last) in wild type FVB mouse plasma at 2.5 mg/kg, iv; type: ADME, organism-based; parameters: time 0 - last, dose 2.5 mg/kg, route intravenous
[20] = AUC (0 to last) in wild type FVB mouse brain at 2.5 mg/kg, iv; type: ADME, organism-based; parameters: time 0 - last, dose 2.5 mg/kg, route intravenous
[21] = AUC (0 to last) in wild type FVB mouse plasma at 100 mg/kg, ip; type: ADME, organism-based; parameters: time 0 - last, dose 100 mg/kg, route intraperitoneal
[22] = AUC (0 to last) in wild type FVB mouse brain at 100 mg/kg, ip; type: ADME, organism-based; parameters: time 0 - last, dose 100 mg/kg, route intraperitoneal
[23] = AUC (0 to last) in wild type FVB mouse plasma at 100 mg/kg, po; type: ADME, organism-based; parameters: time 0 - last, dose 100 mg/kg, route oral
[24] = AUC (0 to last) in wild type FVB mouse brain at 100 mg/kg, po; type: ADME, organism-based; parameters: time 0 - last, dose 100 mg/kg, route oral
Plasma [25] = experiment: AUC (0 to infinity) in wild type FVB mouse plasma at 2.5 mg/kg, iv; type: ADME, organism-based; parameters: time infinity, dose 2.5 mg/kg, route intravenous; conditions: in vivo
[26] = AUC (0 to infinity) in wild type FVB mouse brain at 2.5 mg/kg, iv; type: ADME, organism-based; parameters: time infinity, dose 2.5 mg/kg, route intravenous
Plasma [27] = experiment: AUC (0 to infinity) in wild type FVB mouse plasma at 100 mg/kg, ip; type: ADME, organism-based; parameters: time infinity, dose 100 mg/kg, route intraperitoneal; conditions: in vivo
[28] = AUC (0 to infinity) in wild type FVB mouse brain at 100 mg/kg, ip; type: ADME, organism-based; parameters: dose 100 mg/kg, route intraperitoneal, time infinity
[29] = AUC (0 to infinity) in wild type FVB mouse plasma at 100 mg/kg, po; type: ADME, organism-based; parameters: time infinity, dose 100 mg/kg, route oral
[30] = AUC (0 to infinity) in wild type FVB mouse brain at 100 mg/kg, po; type: ADME, organism-based; parameters: time infinity, dose 100 mg/kg, route oral
[31] = Ratio of AUC in brain to plasma in wild type FVB mouse plasma at 2.5 mg/kg, iv; type: ADME, organism-based; parameters: dose 2.5 mg/kg, route intravenous; conditions: brain and plasma
[32] = Ratio of AUC in brain to plasma in wild type FVB mouse plasma at 100 mg/kg, ip; type: ADME, organism-based; parameters: dose 100 mg/kg, route intraperitoneal; conditions: brain and plasma
[33] = Ratio of AUC in brain to plasma in wild type FVB mouse plasma at 100 mg/kg, po; type: ADME, organism-based; parameters: dose 100 mg/kg, route oral; conditions: brain and plasma
[34] = Apparent plasma clearance in wild type FVB mouse plasma at 100 mg/kg, ip; type: ADME, organism-based; parameters: dose 100 mg/kg, route intraperitoneal
[35] = Apparent plasma clearance in wild type FVB mouse at 100 mg/kg, po; type: ADME, organism-based; parameters: dose 100 mg/kg, route oral
[36] = Apparent oral volume of distribution in wild type FVB mouse at 100 mg/kg, po; type: ADME, organism-based; parameters: dose 100 mg/kg, route oral; conditions: plasma
[37] = Apparent oral volume of distribution in wild type FVB mouse plasma at 100 mg/kg, ip; type: ADME, organism-based; parameters: dose 100 mg/kg
Plasma [38] = experiment: Apparent plasma clearance in wild type FVB mouse plasma at 2.5 mg/kg, iv; type: ADME, organism-based; parameters: dose 2.5 mg/kg, route intravenous; conditions: in vivo
[39] = Apparent oral volume of distribution in wild type FVB mouse plasma at 2.5 mg/kg, iv; type: ADME, organism-based; parameters: dose 2.5 mg/kg
[40] = Oral bioavailability in wild type FVB mouse at 100 mg/kg; type: ADME, organism-based; conditions: plasma
Plasma [41] = experiment: Bioavailability in wild type FVB mouse at 100 mg/kg, ip; type: ADME, organism-based; conditions: in vivo
Plasma [42] = experiment: Bioavailability in wild type FVB mouse at 2.5 mg/kg, iv; type: ADME, organism-based; conditions: in vivo
[43] = […] Kp, ratio of AUC in brain to plasma in wild type FVB mouse plasma at 10 mg/kg, ip; type: ADME, organism-based; parameters: dose 10 mg/kg, route intraperitoneal; conditions: brain and plasma
[44] = Lipophilicity, logP of the compound; type: physicochemical; conditions: octanol/water

With `COc1cc2c(cc1OC)CN(CCc1ccc(NC(=O)c3cccc4c(=O)c5cccc(OC)c5[nH]c34)cc1)CC2` [ELACRIDAR] the half-life [1] was 20 h, the half-life [2] was 16 h and the half-life [3] was 9.2 h. For the same compound, the half-life [4] was 4.3 h, the half-life [5] was 4.4 h and the half-life [6] was 1.5 h. The Cmax [7] was 295 ng/mL, the Cmax [8] was 61 ng/mL and the Cmax [9] was 564 ng/mL. The Cmax [10] was 1050 ng/mL, the Cmax [11] was 780 ng/mL and the Cmax [12] was 4340 ng/mL. The Tmax [13] was 0.5 h, the Tmax [14] was 0.5 h and the Tmax [15] was 0.5 h. The Tmax [16] was 4 h, the Tmax [17] was 8 h and the Tmax [18] was 8 h. The AUC(0-t) [19] was 2310 ng·h/mL, the AUC(0-t) [20] was 2140 ng·h/mL and the AUC(0-t) [21] was 1060 ng·h/mL. For the same compound, the AUC(0-t) [22] was 332 ng·h/mL, the AUC(0-t) [23] was 13200 ng·h/mL and the AUC(0-t) [24] was 64800 ng·h/mL. The AUC (Plasma [25]) was 161.4 µg·min/mL, the AUC(0-inf) [26] was 2190 ng·h/mL and the AUC (Plasma [27]) was 90.3 µg·min/mL. It also gave an AUC(0-inf) [28] of 725 ng·h/mL, an AUC(0-inf) [29] of 24300 ng·h/mL and an AUC(0-inf) [30] of 105000 ng·h/mL. It also gave a Kp [31] of 0.82, a Kp [32] of 0.48 and a Kp [33] of 4.31. It also gave a CL/F [34] of 33.2 mL/min, a CL/F [35] of 2.05 mL/min and a Vd/F [36] of 3.5 L. For the same compound, the Vd/F [37] was 12.3 L, the CL/F (Plasma [38]) was 0.46 mL/min and the Vd/F [39] was 0.17 L. It also gave a bioavailability [40] of 22%, an F (Plasma [41]) of 13% and an F (Plasma [42]) of 100%. The Kp [43] was 0.0784 and the logP [44] was 5.67.

From ChEMBL document CHEMBL3525905, “Brain distribution and bioavailability of elacridar after different routes of administration in the mouse” (Drug Metab Dispos, 2012)
